{"source": "patent US20130267544A1", "about": "“Use of LP-PLA2 Inhibitors in the Treatment and Prevention of Eye Diseases” (priority 2010, published 2013)", "key": {"[1]": {"test_system": "STZ-induced diabetic SD rats", "description": "(§1) Male SD rats, 6 weeks of age and weighing 180-200 g, were used in this study; the rats had free access to food and water and were maintained in cages in an environmentally controlled room with a 12 hour light-dark cycle. Diabetes was induced by following dosing of animals with streptozotocin (50 mg/kg/day dosed i.p. for each of the first 3 days of the protocol) in 10 mM sodium citrate-buffer pH 4.6. […] Animals which maintained an elevated blood glucose level of over 9 mM were deemed diabetic.\nThe retinal images were scanned by a commercially available Fourier-domain OCT (RTVue-100; version 2.1; Optovue, Inc., California, USA). Super-luminescent diode light source with a central wavelength of 840 nm and a full bandwidth of 50 nm was adapted to the OCT. The retinal thickness was accessed by the automatic software of RTVue scanner with manual adjusting. The retinal thickness was defined from layer of retinal pigment eitheluim (RPE) to retinal ganglion cell layer (GCL).\nTwo separate studies were conducted. Retinal images were taken on experimental day 4, 10, 13, 17, 22, 28 and 31 for the second study and day 0, 4, 7, 10, 14 and 18 for the first study. Animals were anesthetized by inhalation of 5% isoflourane and pupils were diluted with 1% tropicamide and 1% phenylephrine. Prior to OCT analysis animals were fixed on a support frame and the eye to be imaged positioned to align with the center of the scan beam perpendicular to the fundus. […] After imaging, the animals were recovered and returned to cages. Retinal thickness from six time points of OCT measurement were analyzed by repeated measures analysis of variance (ANOVA) using Prism software. […] All data were expressed as mean value±SEM."}, "[2]": {"test_system": "STZ-induced diabetic Brown Norway rats (blood-retinal barrier)", "settings": "hyperglycaemic BN rats", "description": "as §1, with “Brown Norway (BN)” for “Male SD”, “(65” for “(50”\nEyes were enucleated, hemisected along the ora serrata, and the vitreous humor removed. Eyecups were immersion fixed in 4% (w/v) paraformaldehyde for 30 min, washed in PBS, and the retinas detached. Fixed retinas were cryoprotected, embedded in Tissue-Tek OCT compound snap frozen in liquid nitrogen-cooled isopentane, and 12-μm cryosections prepared. Sections was immunostained with antibodies specific for rat immunoglobulin G (IgG) in order to locate any nonvascular IgG and isolectin B4 to determine the location of retinal blood vessels in the retinal sections and viewed on a confocal microscope. Fluorescence was visualized by using a Nikon TE-2000 C1 confocal system (Nikon Ltd, Kingston upon Thames, UK). In some cases retinal blood vessels were highlighted using propridium iodide staining"}, "Lp-PLA2": {"target": "Lp-PLA2 (Rattus norvegicus, UniProt A6JJ35)", "sequence (A6JJ35 22-440)": "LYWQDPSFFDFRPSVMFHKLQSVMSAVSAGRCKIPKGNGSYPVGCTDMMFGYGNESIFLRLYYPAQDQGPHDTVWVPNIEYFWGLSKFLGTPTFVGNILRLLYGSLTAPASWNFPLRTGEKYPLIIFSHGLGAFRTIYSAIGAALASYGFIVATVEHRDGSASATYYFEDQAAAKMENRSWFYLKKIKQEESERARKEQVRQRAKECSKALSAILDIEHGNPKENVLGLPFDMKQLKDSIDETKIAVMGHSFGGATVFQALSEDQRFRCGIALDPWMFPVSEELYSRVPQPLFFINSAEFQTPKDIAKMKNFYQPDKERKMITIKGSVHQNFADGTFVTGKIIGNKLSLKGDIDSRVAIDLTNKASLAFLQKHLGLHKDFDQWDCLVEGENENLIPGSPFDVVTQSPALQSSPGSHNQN", "settings": "hyperglycemic BN rats, 10 mg/kg i.p. QD", "description": "as §1, with “Brown Norway (BN)” for “Male SD”, “(65” for “(50”"}, "[3]": {"test_system": "STZ-induced diabetic Brown Norway rats (blood-retinal barrier)", "settings": "BN rats, 2 week study, 10 mg/kg i.p. QD; not statistically robust", "description": "as §1, with “Brown Norway (BN)” for “Male SD”, “(65” for “(50”"}}, "note": "Read-outs that look alike come from different tables or passages of the source."}
{"compound": "CN(C)CCN(Cc1ccc(-c2ccc(C(F)(F)F)cc2)cc1)C(=O)Cn1cc(Cc2cnn(C)c2)c(=O)nc1SCc1ccc(F)cc1", "note": "[Lp-PLA2 inhibitor '495]", "values": [{"measurement": "STZ-induced retinal thinning (neuroretinal thickness by OCT)", "setting": "[1]; first study, 10 mg/kg/day i.p. from day 8, assessed at 10 and 18 days, p<0.05", "value": "partially but significantly inhibited"}, {"measurement": "incidence of sub-retinal fluid accumulation by OCT", "setting": "[1]; hyperglycaemic SD rats, 10 mg/kg/day, day 14", "value": "no animals to have overt retinal fluid accumulation"}, {"measurement": "STZ-induced retinal thinning (neuroretinal thickness by OCT)", "setting": "[1]; second study, 10 mg/kg/d i.p. from day 4, vs vehicle-treated diabetic rats, p<0.001", "value": "significant attenuation in the development of retinal thinning"}, {"measurement": "albumin leakage from retinal vessels (immunohistochemistry)", "setting": "[2]; 10 mg/kg QD i.p., 4 weeks, listed as SB435495, 10 mg/kg", "value": "less leakage and extensive co-localization of albumin with retinal blood vessels"}, {"measurement": "albumin leakage from retinal vessels (immunohistochemistry)", "setting": "[2]; 20 mg/kg QD i.p., 2 weeks, 20 mg/kg", "value": "albumin is contained intravascularly and co-localised with retinal vessels"}, {"measurement": "albumin leakage from retinal vessels (immunohistochemistry)", "setting": "[2]; 20 mg/kg QD i.p., 2 weeks, listed as SB435495, 20 mg/kg", "value": "less leakage and extensive co-localization of albumin with retinal blood vessels"}, {"measurement": "trough Lp-PLA2 inhibition", "setting": "Lp-PLA2; 2 weeks study", "value": 89.7, "unit": "%"}, {"measurement": "trough Lp-PLA2 inhibition", "setting": "Lp-PLA2; 4 week study", "value": 93.2, "unit": "%"}, {"measurement": "Evans blue (albumin) leakage in retinae", "setting": "[3]", "value": "reduced this leak to levels exhibited by the normo-glycaemic group"}]}
